Data taken from US6235516A, “Biocatalysts with amine acylase activity” (Novartis AG, priority 1996, dated 2001).
Blank lines part the entries; values can stand above or below the compound they belong to.

Legend:
AcR5b-acylase [1] = test: Stability of the AcR5b-acylase during freezing, with and without cryoprotective agents; assay type: physicochemical, Arthrobacter aurescens AcR5b
[2] = tested on: whole cells of Rhodococcus globerulus K1/1; test: Hydrolysis of racemic 2-acetylamino-1(4-chlorophenyl)-4-pentene with whole cells of Rhodococcus globerulus K1/1; assay type: cell-based; conditions: 80 g racemic amide in 20 l, 21 h at 28° C.
Method: Strain K1/1 is grown according to example 3 in a 30 l fermenter filled with 20 l of basic medium containing 1 g/l of racemic N-acetyl-1-phenylethylamine. The cells are harvested by continuous centrifugation and resuspended in the reaction mixture, which is prepared by adding a solution of 80 g racemic 2-acetylamino-1(4-chlorophenyl)-4-pentene in 500 ml methanol to 20 l of potassium phosphate buffer, 69 mM, pH 7. After stirring for 21 h at 28° C. and 500 rpm the amine formed and the unreacted amide are separated and analyzed for their optical purity analogously to the procedure given in example 30.

K1/1 acylase = test: Hydrolysis of racemic 2-acetylamino-1-phenyl-4-pentene with the purified K1/1 acylase; assay type: biochemical, Rhodococcus globerulus K1/1; conditions: at 50.3% conversion
Method: To 50 ml of a 10 mM solution of racemic 2-acetylamino-1-phenyl-4-pentene in phosphate buffer (pH 7.0) 7 ml of the K1/1 acylase are added (0.456 U), which has been purified by HIC and concentrated by ultrafiltration (example 26.5 and 26.6). The deacylation is performed at 30° C. under continuous shaking at 200 rpm. The reaction is monitored by HPLC (see example 1), and after the conversion is about 50% the solution is acidified to pH 2 with 1 N HCl and extracted three times with one volume of dichloromethane to obtain the unconverted amides. The aqueous phase is neutralized with 1 N NaOH and extracted again three times with dichloromethane to recover the formed amines. Both organic phases are dried with MgSO4, filtered and the solvent is distilled off. The amides are used directly for optical purity determinations via HPLC under the following conditions: Chiralcel OJ column, hexane/isopropanol 9:1 as the eluent, flow rate 1 ml/min., detection at 208 nm. The obtained amines are converted to the acetamides by adding […] to each sample before being also analyzed for the optical purity by HPLC.

AcR5b-acylase [3] = test: Dependence of the reaction velocity of the AcR5b-acylase on substrate concentration (Km, Vmax); assay type: biochemical, Arthrobacter aurescens AcR5b
Method: Activity assays are performed under the standard conditions given in example 11 with an incubation time of 30 min. using different initial concentrations of (R)-N-acetyl-1-phenylethylamine and racemic N-acetyl-(m-cyano-phenyl)ethylamine. The final AcR5b-acylase preparation obtained in example 4d, which has been diluted 20 fold with 69 mM potassium phosphate buffer, pH 7, serve as the enzyme source. The Michaelis constants (Km) and the maximum reaction velocities are calculated as described in example 9.

R. equi Ac6 = test: Growth and induction of the acylase of Rhodococcus equi Ac6 (shake flask culture); assay type: cell-based; conditions: for induction of the acylase expression of strain Ac6: 3 g/l in basic medium; for Enzyme yield with (R)-amide as the acylase substrate / Enzyme yield with (S)-amide as the acylase substrate: basic medium + 3 g/l of the amide as inducer; for Enzyme yield with (R)-amide as the acylase substrate / Enzyme yield with (S)-amide as the acylase substrate / OD660 at cell harvest: 91 h; for OD660 at cell harvest: basic medium + 3 g/l of the amide, basic medium alone 0.46; for effect on growth of Rhodococcus equi Ac6: in the growth medium
Method: R. equi Ac6 is grown in basic medium containing 3 g/l (S)-N-acetyl-1-phenylethylamine or 3 g/l (R)-N-acetyl-1-phenylethylamine or no N-acetyl-1-phenylethylamine for 91 h by the shake flask culture technique described in example 1. By applying the methods given in example 1 the crude extracts are prepared and subjected to measurement of the protein concentration and the acylase activity using (S)-N-acetyl-1-phenylethylamine and (R)-N-acetyl-1-phenylethylamine as the substrates.
R. equi Ac6 cells are inoculated into three 1 l Erlenmeyer flask containing each 100 ml of basic medium with 10 g/l yeast extract and 10 g/l meat extract as additional nutrients. The cells are grown (shake flask technique see example 1) until the OD660 reaches about 2. Then the culture is split into eight portions of 25 ml and (S)-N-acetyl-1-phenylethylamine is added to the shake flasks in final concentrations of 0-7 g/l in steps of 1 g/l. The cells are further incubated for 25 h. Then the protein concentrations and acylase activities of the crude extracts are measured as described in example 1.
In another experiment (S)-N-acetyl-1-phenylethylamine is added to the culture medium in final concentrations of 1 to 5 g/l in steps of 1 g/l directly after inoculation to one series of shake flasks (see example 1) and after 72 h of growth to another. Basic medium without peptone supplemented with 20 g/l meat extract and 20 g/l yeast extract is used. 96 h after inoculation the cells are harvested by centrifugation and the protein concentration and acylase activity in the crude extract are measured (see example 1).

CC(=O)N[C@@H](C)c1ccccc1 = test: Dependence of the reaction velocity of the Ac6-acylase on substrate concentration (Km); assay type: biochemical, Rhodococcus equi Ac6; conditions: other: purified Ac6-acylase, pH 7, 30° C., 10 min, nonlinear regression
Method: Activity assay under the standard conditions given in example 1 with an incubation time of 10 min. are performed using different initial concentrations of (S)-N-acetyl-1-phenylethylamine and the final Ac6-acylase preparation obtained in example 4c, which has been diluted 5 fold with 69 mM potassium phosphate buffer, pH 7, as the enzyme source. The Michaelis constant Km is calculated from the substrate concentrations and the corresponding reaction velocities by numerical nonlinear regression with the program "SigmaPlot for Windows" (Jandel Scientific GmbH, Schimmelbusch, Germany) to the formula: v=Vm×S/(S+Km). v: reaction velocity (U/ml=mM/min.), Vm : maximum reaction velocity (U/ml), S=(S)-N-acetyl-1-phenylethylamine concentration (mM).

[4] = AcR5b-acylase frozen 2.5 h at -20° C. with the cryoprotective agent of the label (label AcR5b-acylase = none)
[5] = AcR5b-acylase frozen 2.5 h at -80° C. with the cryoprotective agent of the label (label AcR5b-acylase = none)
[6] = AcR5b-acylase frozen 9 days at -20° C. with the cryoprotective agent of the label (label AcR5b-acylase = none)
[7] = AcR5b-acylase frozen 9 days at -80° C. with the cryoprotective agent of the label (label AcR5b-acylase = none)

Compound: N.N.O=S(=O)(O)O [10% (NH4)2 SO4, (NH4)2 SO4]
Relative activity (%) (AcR5b-acylase [1]; [4]): 100%
Relative activity (%) (AcR5b-acylase [1]; [5]): 92%
Relative activity (%) (AcR5b-acylase [1]; [6]): 81%
Relative activity (%) (AcR5b-acylase [1]; [7]): 83%

Relative activity (%) (AcR5b-acylase [1]; [4]): 100%
Relative activity (%) (AcR5b-acylase [1]; [5]): 100%
Relative activity (%) (AcR5b-acylase [1]; [6]): 100%
Relative activity (%) (AcR5b-acylase [1]; [7]): 92%
Compound: OC[C@H]1O[C@@](CO)(O[C@H]2O[C@H](CO)[C@@H](O)[C@H](O)[C@H]2O)[C@@H](O)[C@@H]1O [10% Saccharose, Saccharose]

Relative activity (%) (AcR5b-acylase [1]; [4]): 77%
Relative activity (%) (AcR5b-acylase [1]; [5]): 100%
Relative activity (%) (AcR5b-acylase [1]; [6]): 98%
Relative activity (%) (AcR5b-acylase [1]; [7]): 90%
Compound: OCC(O)CO [50% Glycerol, Glycerol]

Compound: C=CC[C@H](Cc1ccc(Cl)cc1)NC(C)=O [(R)-2-acetylamino-1(4-chlorophenyl)-4-pentene]
ee of the unreacted amide [2]: 98.5 % ee

Compound: C=CC[C@H](Cc1ccccc1)NC(C)=O [(R)-N-2-acetylamino-1-phenyl-4-pentene]
ee of the unconverted amide (K1/1 acylase): 98.8 % ee

Compound: CC(=O)N[C@H](C)c1ccccc1 [(R)-N-acetyl-1-phenylethylamine]
Km (AcR5b-acylase [3]; 30 min incubation, pH 7): 5.7 mM
relative maximum reaction velocity (AcR5b-acylase [3]; (R)-N-acetyl-1-phenylethylamine = 100): 100%
induction of the acylase expression of strain Ac6 (R. equi Ac6): not effective as an inducer
Enzyme yield with (R)-amide as the acylase substrate (R. equi Ac6): 0 U/lculture broth
Enzyme yield with (S)-amide as the acylase substrate (R. equi Ac6): 0 U/lculture broth
OD660 at cell harvest (R. equi Ac6): 0.19
effect on growth of Rhodococcus equi Ac6 (R. equi Ac6): inhibits the growth of the bacterium

Compound: C=CC[C@H](N)Cc1ccc(Cl)cc1 [(S)-2-amino-1(4-chlorophenyl)-4-pentene]
ee of the formed amine [2]: > 99.9 % ee

Compound: C=CC[C@H](N)Cc1ccccc1 [(S)-2-amino-1-phenyl-4-pentene]
ee of the formed amine (K1/1 acylase): 87.4 % ee

Compound: CC(=O)N[C@@H](C)c1ccccc1 [(S)-N-acetyl-1-phenylethylamine]
maximal acylase production (R. equi Ac6; 2 g/l inducer added 72 h after inoculation, harvest 96 h): 20 U/lculture medium
induction of the acylase expression of strain Ac6 (R. equi Ac6): has to be present in the growth medium to induce the acylase expression
maximal acylase yield (R. equi Ac6; 3 g/l inducer added directly after inoculation, harvest 96 h): 60 U/lculture medium
Enzyme yield with (R)-amide as the acylase substrate (R. equi Ac6): < 0.4 U/lculture broth
Enzyme yield with (S)-amide as the acylase substrate (R. equi Ac6): 38.2 U/lculture broth
OD660 at cell harvest (R. equi Ac6): 1.52
effect on growth of Rhodococcus equi Ac6 (R. equi Ac6): inhibits the growth of the cells

Compound: Ac6-acylase (Rhodococcus equi 103S)
Km (CC(=O)N[C@@H](C)c1ccccc1): 0.6 mM
